Test results taken from PubChem BioAssay (NCI).
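Grown in 96-well plates, cells were treated for 48 hours with each compound at five concentrations. Insufficient inhibition: endpoint recorded as highest concentration tested. TGI denotes the concentration required for complete inhibition of growth.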

Legend:
Assay in all cases: DTP human tumour cell line panel, 48 h
786-0 renal = tested on: 786-0 renal
DLD-1 colon = tested on: DLD-1 colon
DMS 114 small cell lung = tested on: DMS 114 small cell lung
DMS 273 small cell lung = tested on: DMS 273 small cell lung
HCT-15 colon = tested on: HCT-15 colon
HOP-62 NSCLC = tested on: HOP-62 NSCLC
KM20L2 colon = tested on: KM20L2 colon
M19-MEL melanoma = tested on: M19-MEL melanoma
MOLT-4 leukemia = tested on: MOLT-4 leukemia
NCI-H460 lung = tested on: NCI-H460 lung
RPMI-8226 leukemia = tested on: RPMI-8226 leukemia
UACC-257 melanoma = tested on: UACC-257 melanoma
RXF 393 renal = tested on: RXF 393 renal

SMILES	TGI (786-0 renal) [µM]	TGI (DLD-1 colon) [µM]	TGI (DMS 114 small cell lung) [µM]	TGI (DMS 273 small cell lung) [µM]	TGI (HCT-15 colon) [µM]	TGI (HOP-62 NSCLC) [µM]	TGI (KM20L2 colon) [µM]	TGI (M19-MEL melanoma) [µM]	TGI (MOLT-4 leukemia) [µM]	TGI (NCI-H460 lung) [µM]	TGI (RPMI-8226 leukemia) [µM]	TGI (UACC-257 melanoma) [µM]	TGI (RXF 393 renal) [µM]
C=C1CCC23CC(CC[C@@H]2[C@@]12C[C@@H](c1ccoc1)OC2=O)OC3=O (stereo partly specified)	> 100	> 100	> 100	> 100	> 100	> 100	> 100	> 100	> 100	> 100	> 100	> 100	
COc1ccc(-c2cc(=O)c3ccccc3[nH]2)c(OC)c1	> 100	> 100	> 100	> 100	> 100	> 100	> 100	> 100	> 100	> 100	> 100	> 100	> 100
CCOC(=O)C(Cc1cn(S(=O)(=O)c2ccccc2)c2ccccc12)(NC(C)=O)C(=O)OCC	> 100	> 100	80.4	> 100	> 100	> 100	> 100	> 100	61.4	> 100	44.7	88.2	
CCN(CC)CC(=O)O[C@]1(CC)C(=O)OCc2c1cc1n(c2=O)Cc2cc3ccccc3nc2-1	0.13	> 100	0.362	0.0304	3.93	< 0.048	0.887	0.738	0.0749	0.129	1.85	1.05	0.564
COc1cccc(/C=C2\C(=O)N(C(=O)c3ccc(NC(C)=O)cc3)N=C2C)c1	> 100	> 100	> 100	> 100	> 100	> 100		> 100	> 100	> 100		> 100	
C=CCc1cc(-c2cc(CC=C)c(O)c(CNCCCl)c2)cc(CNCCCl)c1O	> 100	57	42.2		31.1	33.2	33.9	32.3	53.4	37	61.9	32.4	
O=c1[nH]nc(Cc2ccccc2)[nH]1	> 100				> 100	> 100			> 100	> 100	> 100	> 100	> 100
c1ccc2c(c1)nc1n2CNC1	> 100				> 100	> 100			> 100	> 100	> 100	> 100	> 100
CC(C)(C)c1ccc(-c2nc3ccc(Cl)cc3c(=O)o2)cc1	> 100				49.5	49.7			36.3	> 100	54.1	65.1	87.1
COc1cc(/C=C2\N=C(c3ccccc3)N(c3nc4c(OC)ccc(OC)c4s3)C2=O)ccc1O	> 100				> 100	> 100			39.5	> 100	62.8	> 100	> 100
Cc1cc(C)n(C2OC(CO)C(O)C(O)C2O)c(=S)c1C#N (stereo unspecified)	> 100				> 100	> 100			> 100	> 100	> 100	> 100	> 100
COC/C=C\[C@]1(O)CCCC[C@@H]1CC(OC)OC	> 100				> 100	> 100			91.2	> 100	> 100	> 100	> 100
NCCCCC(N)C(=O)NCCNc1ccc(NCCNC(=O)C(N)CCCCN)c2c1C(=O)c1ccccc1C2=O (stereo unspecified)	> 100				> 100	> 100			> 100	> 100	> 100	> 100	21.6
O=C1O/C(=C(/Cl)c2cccc3ccccc23)c2ccccc21	> 100				> 100	> 100			> 100	> 100	> 100	> 100	> 100
Cc1ccccc1N=Nc1ccc(N/N=C2/CCCNC2=O)c(C)c1	> 100				> 100	> 100			> 100	> 100	> 100	> 100	> 100
C/C=C(/C)C(=O)O[C@H]1C[C@@H]2[C@@H](O)c3occ(C)c3C[C@]2(C)[C@@H](C)C1	29.7				44.3	31.3			37.1	46.8	76.5	23.2	28.9

SMILES	TGI (786-0 renal) [µM]	TGI (DLD-1 colon) [µM]	TGI (DMS 114 small cell lung) [µM]	TGI (DMS 273 small cell lung) [µM]	TGI (HCT-15 colon) [µM]	TGI (HOP-62 NSCLC) [µM]	TGI (KM20L2 colon) [µM]	TGI (M19-MEL melanoma) [µM]	TGI (MOLT-4 leukemia) [µM]	TGI (NCI-H460 lung) [µM]	TGI (RPMI-8226 leukemia) [µM]	TGI (UACC-257 melanoma) [µM]	TGI (RXF 393 renal) [µM]
COc1ccc(CCN2CCN(CCc3ccc(OC)cc3)CC2)cc1	> 100				> 100	> 100			> 100	> 100	> 100	> 100	95.1
COc1ccc(C2=Nn3c(nnc(Cc4ccc(Cl)cc4)c3=O)SC2)cc1	> 100				> 100	> 100			> 100	> 100	> 100	> 100	> 100
COc1cc(O)c2c(c1)OCC(Cc1ccc(O)cc1)C2=O (stereo unspecified)	> 100				> 100	> 100			> 100	> 100	> 100	> 100	> 100
CC(=O)N[C@@H](Cc1ccc(O)cn1)C(=O)NCc1cccc(Cl)c1	> 100				> 100	> 100			> 100	> 100	> 100	> 100	> 100
N#Cc1c(-c2ccccc2)cc(Nc2cccc(C(F)(F)F)c2)n2c1nc1ccccc12	6.57				10.2	9.81			41	17.7	6.74	9.76	11.9
CC(C)(C)C1=CC(=C(c2ccc(-c3c4nc(c(-c5ccc(C(=C6C=C(C(C)(C)C)C(=O)C(C(C)(C)C)=C6)c6cc(C(C)(C)C)c(O)c(C(C)(C)C)c6)cc5)c5ccc([nH]5)c(-c5ccc(C(=C6C=C(C(C)(C)C)C(=O)C(C(C)(C)C)=C6)c6cc(C(C)(C)C)c(O)c(C(C)(C)C)c6)cc5)c5nc(c(-c6ccc(C(=C7C=C(C(C)(C)C)C(=O)C(C(C)(C)C)=C7)c7cc(C(C)(C)C)c(O)c(C(C)(C)C)c7)cc6)c6ccc3[nH]6)C=C5)C=C4)cc2)c2cc(C(C)(C)C)c(O)c(C(C)(C)C)c2)C=C(C(C)(C)C)C1=O	> 100				> 100	> 100			> 100	> 100	> 100	> 100	> 100
CN1C2CCC1CC(CCNC(c1ccccc1)c1ccccc1)C2 (stereo unspecified)	41.4				> 100	50.9			> 100	> 100	56.1	31.8	39.1
COC(=O)CCc1cc(O)c2c(c1)C(C(=O)OC)C(c1ccc(O)c(O)c1)O2 (stereo unspecified)	> 100				> 100	> 100			> 88.8	> 62.8	> 92.9	> 100	> 100
Cc1ccc(/C=C2\CCC/C(=C\c3ccc(O)c(CN4CCCCC4)c3)C2=O)cc1	14.3				18.3	> 51.7			9.03	20	> 100	25.3	27.1
Cc1ccc(N=Nc2c(C)c(C#N)c(=S)n(C3OC(CO)C(O)C(O)C3O)c2C)cc1 (stereo unspecified)	83.8				> 100	84.9			48.6	91.3	> 100	> 100	93.6
NC(N)=N/N=C/c1c(-c2cccc([N+](=O)[O-])c2)nc2n1CCS2	> 100				> 100	> 100			29.8	53.5	> 100	36.1	36
COC(=O)C1C(=O)C=CN([C@H](C)c2ccccc2)[C@@H]1Cc1ccc(OC)c(OCc2ccccc2)c1I (stereo partly specified)	34.4				27	52.4			> 100	31.7	> 100	39.3	25.2
O=C1CCCC2(c3ccccc3)Nc3ccccc3N12 (stereo unspecified)	> 100				> 100	> 100			> 100	> 100	> 100	> 100	> 100
NC(=S)Nc1ccc(S(=O)(=O)Nc2ccc(S(N)(=O)=O)cc2)cc1	> 100				> 100	> 100			> 100	> 100	> 100	> 100	> 100
COC(=O)C(NC(=O)c1ccccc1)c1ccco1 (stereo unspecified)	> 100				> 100	> 100			> 100	> 100	> 100	> 100	> 100
